In patent US20130059793A1, “EGF RECEPTOR MIMICKING PEPTIDES” (BOARD OF REGENTS, THE UNIVERSITY OF TEXAS SYSTEM, priority 2010, published 2013):

Columns and labels:
[1] = test system: cetuximab; assay: Binding of synthetic peptides to cetuximab (ELISA-based, FIG. 3A, FIG. 4B); conditions: FIG. 4B (peptides plated at 10 μg/ml)
Text: BSA served as an additional negative control, and the EGFR, as a positive control. […] Insertless phage served as a negative control. […] Bars represent mean±SEM.
(§1) A representative experiment is depicted. […] Bars represent mean±SEM. […] (FIG. 4C) Effect of the synthetic peptides on HN5 tumor cells. […] Viability in the absence of peptide was set to 100%. […] Bars represent mean±SEM. […] Receptors were immunoprecipitated with antibodies against phosphorylated (p) pEGFR and were immunoblotted with anti-phosphotyrosine IgG.
(§2) The EGFR served as an immobilized positive control, and BSA or control peptides (CVAAC) served as immobilized negative controls.

[2] = Nuclear magnetic resonance (NMR)-spectroscopy interactions; type: binding
[3] = test system: HN5 tumor cells; assay: Cell viability/proliferation, MTT assay, HN5; type: cell-based, human; design: cell proliferation / viability: dose or concentration left out as unconfirmed
Procedure: as §1
Tumor cell lines HN5, UMSCC 10A, GEO and EF43.fgf-4 were culture in standard conditions. Viability was assessed by MTT assays (Sigma) as described (Cardó-Vila et al., 2003). […] Samples were read at 570 nm.
Tumor cell lines HN5, UMSCC 10A, GEO and EF43.fgf-4 were maintained in high-glucose DMEM, supplemented with 10% heat-inactivated fetal bovine serum, 20 mM HEPES (pH 7.4), 100 IU/ml penicillin, 100 μg/ml streptomycin, and 4 mM glutamine at 5% CO2 at 37° C. EF43.fgf-4 were grown in G418 as described (Hajitou et al., 2006).

[4] = test system: EGFR; assay: EGF-induced EGFR autophosphorylation (immunoprecipitation, anti-phosphotyrosine blot); type: cell-based, human; conditions: HN5 tumor cells, EGF 15 min, FIG. 4E
Text: as §1

[5] = test system: ERK; assay: EGF-induced phosphorylation of ERK in HN5 cells; type: cell-based; conditions: human HN5 head and neck cells
Text: (§3) To dissect the downstream signal transduction cascade in this setting, proliferative, survival, and migratory pathways were examined.

[6] = test system: AKT; assay: EGF-induced phosphorylation of AKT in HN5 cells; type: cell-based; conditions: human HN5 head and neck cells
Text: as §3

[7] = test system: p38; assay: EGF-induced phosphorylation of p38 in HN5 cells; type: cell-based; conditions: human HN5 head and neck cells
Text: as §3

[8] = test system: EF43.fgf-4-derived tumors; assay: Treatment of tumor-bearing mice with peptides and peptidomimetics, tumor volume; type: in vivo; conditions: at the end of two weeks; Balb/c mice, EF43.fgf-4 tumors; 750 μg/mouse/dose for 5 days; mean±SEM
Text: FIGS. 5A-B: CVRAC-targeted phage homes to tumor. (FIG. 5A) Targeting tumors versus control organs. […] An anti-phage antibody was used for staining H&E staining, with the corresponding fluorescence-based immunostaining, are shown in tumors (FIG. 5A). Tumor-bearing mice received CVRAC phage, CVAAC phage, or insertless control phage as indicated. Cohorts of tumor-bearing mice (n=5 mice/group) were used. A representative experiment is shown. Scale bar, 100 μm. (FIG. 5B) Treatment of tumor-bearing mice with peptides and peptidomimetics. Balb/c mice bearing EF43.fgf-4-derived tumors were divided into size-matched cohorts (n=7 mice/group); individual tumor volumes are represented before (black circles) and after (white circles). Peptides and peptidomimetics were administered at 750 μg/mouse/dose for 5 days. Shown are mean tumor volumes±SEM.
Selective phage homing to tumors was evaluated as described (Hajitou et al., 2006; Arap et al., 1998). […] Each cohort of mice (n=3 per experiment) with size-matched tumors received a set of test and control phage clones. After 6 h, tumor-bearing mice were perfused through the heart with 20 ml of PBS containing 4% paraformaldehyde (PFA). […] For experimental therapy, Balb/c mice bearing EF43.fgf-4-derived tumors were established, and tumor volumes were determined as described (Arap et al., 1998; Hajitou et al., 2006; Ciardiello et al., 1999). […]

[9] = molecular target: binding of EGF to the EGFR (Homo sapiens, UniProt P01133); assay: Displacement of EGF from immobilized EGFR (FIG. 6A); conditions: D(CARVC) from 30 to 1,000 mM, cetuximab 12 nM positive control
Text: (§4) The EGFR was coated onto 96-well plates at decreasing concentrations. […] D(CAAVC (SEQ ID NO:8)) was used as a negative peptidomimetic control at the same concentrations (circles). […] Bars represent mean±SEM.
(§5) Decreasing molar concentrations of EGFR were immobilized in vitro, after which the native ligand (EGF or TGFα) was used to establish the baseline for the binding of EGF to the EGFR, or of TGFα to the EGFR.

[10] = molecular target: binding of TGFα to the EGFR (Homo sapiens, UniProt P01135); assay: Displacement of TGFα from immobilized EGFR (FIG. 6B); conditions: increasing molar concentrations
Text: as §4, §5

[11] = test system: polyclonal anti-CVRAC antibodies; assay: ELISA recognition of peptides by polyclonal anti-CVRAC antibodies (FIG. 4B); type: binding, rabbit
Text: as §1
Rabbits were immunized with KLH-conjugated CVRAC and a purified antibody was obtained. […] The capacity of rabbit IgG against CVRAC to recognize CVRAC, D(CARVC), and EGFR was measured by ELISA.
as §2

Chain of binding of TGFα to the EGFR (P01135 40-89 limits assumed): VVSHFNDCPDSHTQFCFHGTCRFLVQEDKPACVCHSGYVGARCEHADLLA
Chain of binding of EGF to the EGFR (P01133 971-1023 limits assumed): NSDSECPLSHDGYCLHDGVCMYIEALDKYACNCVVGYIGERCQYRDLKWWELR

**Q.** Which “binding of synthetic peptide to cetuximab” value [1] does the source give for D(CARVC) here?
**A.** retained binding activity

**Q.** And the “interactions by NMR-spectroscopy” value [2]?
**A.** Low-affinity interactions (micromolar range)

**Q.** What about the “cell proliferation / viability” value ([3]; HN5, MTT, 120 h, increasing concentrations, FIG. 4C) of the same substance?
**A.** proliferated much less

**Q.** And the “activity on an equimolar basis compared with CVRAC” value ([3]; prolonged (120 h) functional assay)?
**A.** more potent

**Q.** What about the “EGF-induced tyrosine phosphorylation of the EGFR” value [4] of the same substance?
**A.** effectively inhibited

**Q.** What about the “EGF-induced phosphorylation of ERK” value [5] of the same substance?
**A.** inhibit

**Q.** What about the “EGF-induced phosphorylation of AKT” value [6] of the same substance?
**A.** inhibit

**Q.** And the “EGF-induced phosphorylation of p38” value [7]?
**A.** not

**Q.** And the tumor volume [8]?
**A.** 550±50 mm^3

**Q.** What about the “displacement of EGF from the EGFR” value [9] of the same substance?
**A.** concentration-dependent effect

**Q.** What about the “displacement of TGFα from the EGFR” value [10] of the same substance?
**A.** concentration-dependent displacement

**Q.** What about the “recognition by polyclonal anti-CVRAC antibodies” value [11] of the same substance?
**A.** recognized
